# Results from PubChem BioAssay (NCI).
#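 Protocol summary: plate cells (96-well), add compound at 5 concentrations, incubate 48 h, interpolate endpoints linearly. Abbreviation: GI50, concentration required for 50% inhibition of growth. TGI: concentration producing complete growth inhibition.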
# Experiments:
# Assay in all cases: growth of human tumour cells (NCI), 48 h
# [1] = test system: CAKI-1 renal
# [2] = test system: HOP-92 NSCLC
# [3] = test system: HT29 colon
# [4] = test system: K-562 leukemia
# [5] = test system: MOLT-4 leukemia
# [6] = test system: NCI-H522 lung
# [7] = test system: RXF 393 renal
# [8] = test system: SK-MEL-2 melanoma
# [9] = test system: SN12C renal
# [10] = test system: SR leukemia
Compound,TGI [1],TGI [2],TGI [3],TGI [4],TGI [5],TGI [6],TGI [7],TGI [8],TGI [9],TGI [10],GI50 [1],GI50 [2],GI50 [3],GI50 [4],GI50 [5],GI50 [6],GI50 [7],GI50 [8],GI50 [9],GI50 [10]
O=C(CCc1nnc2s/c(=C\c3ccccc3)c(=O)n12)Nc1cc(Cl)ccc1Cl,> 100 µM,> 100 µM,> 100 µM,> 100 µM,> 100 µM,> 100 µM,> 100 µM,> 100 µM,> 100 µM,> 100 µM,,,,,,,,,,
O=C(N[C@H](c1ccc(Cl)c(Cl)c1)C1CNC1)c1ccc2cnccc2c1,10.7 µM,5.91 µM,14.4 µM,14 µM,5.67 µM,26.5 µM,3.74 µM,22.4 µM,15.7 µM,10.8 µM,1.84 µM,0.966 µM,3.24 µM,3.37 µM,1.41 µM,12.9 µM,0.68 µM,10.2 µM,2.76 µM,2.11 µM
O=C(c1cc2ccccc2[nH]1)C(O)(c1cc2ccccc2[nH]1)c1cc2ccccc2[nH]1,> 246 µM,> 246 µM,> 246 µM,> 246 µM,> 246 µM,> 246 µM,> 246 µM,> 246 µM,> 246 µM,> 246 µM,,,,,,,,,,
Fc1ccc(-c2nc(-c3nc4ccc(Cl)cc4[nH]3)cc3c2[nH]c2ccccc23)cc1,24 µM,6.18 µM,12.8 µM,38.4 µM,8.37 µM,12.9 µM,4.66 µM,7.54 µM,24.4 µM,> 100 µM,3.22 µM,1.56 µM,4.31 µM,3.32 µM,2.48 µM,2.74 µM,1.62 µM,2.76 µM,3.04 µM,3.71 µM
CCc1cccc(C(C)CC)c1N=C(NC(=O)c1ccccc1C(=O)NC(=Nc1c(CC)cccc1C(C)CC)SC)SC (stereo not given),> 100 µM,39.2 µM,> 100 µM,> 100 µM,> 100 µM,64.4 µM,> 100 µM,> 100 µM,> 100 µM,> 100 µM,,,,,,,,,,
C=C1CC[C@@H]2C(C)(C)[C@@H](O)CC[C@@]2(C)[C@@H]1COc1ccc2ccc(=O)oc2c1,55.6 µM,24.3 µM,32.6 µM,> 100 µM,35.6 µM,36.1 µM,21.9 µM,32.8 µM,30.8 µM,83.9 µM,13.4 µM,8.62 µM,8.61 µM,6.43 µM,7.22 µM,13.1 µM,7.41 µM,15.5 µM,14.1 µM,19.4 µM
CC(C)=CC/C=C(/C)[C@H]1CC[C@]2(C)[C@@H]1CC[C@@H]1[C@@]3(C)CCC(=O)NC(C)(C)[C@@H]3CC[C@]12C,40.3 µM,28.2 µM,72.3 µM,88.2 µM,49.6 µM,40.2 µM,32.4 µM,82.8 µM,33.8 µM,51.8 µM,19.6 µM,13.8 µM,20.4 µM,17.3 µM,15.4 µM,18.4 µM,16.8 µM,27.6 µM,16.1 µM,17.4 µM
Cc1c2ccccc2c(C)c2c3c(ccc12)C(=O)C=CC3=O,46.3 µM,32.4 µM,> 65.8 µM,50.9 µM,6.78 µM,28 µM,27.4 µM,> 84.6 µM,> 69.1 µM,25.2 µM,,,,,,,,,,
COc1ccc2c(c1)C(=O)c1c-2n(CCCN=[N+]=[N-])c(=O)c2ccccc12,> 100 µM,> 100 µM,> 100 µM,> 100 µM,> 100 µM,> 100 µM,> 100 µM,> 100 µM,> 100 µM,> 100 µM,49.7 µM,50.7 µM,41.4 µM,26 µM,4.38 µM,10.8 µM,89.8 µM,46 µM,> 100 µM,5.7 µM
